As usually defined, the IC50 is the concentration needed to halve the response being measured. Usually ED50 stands for the midpoint of the dose-response relation. A low value points to an effect at a small dose.

The source of these data is ChEMBL document CHEMBL1133187, “Novel antiarthritic agents with 1,2-isothiazolidine-1,1-dioxide (gamma-sultam) skeleton: cytokine suppressive dual inhibitors of cyclooxygenase-2 and 5-lipoxygenase” (J Med Chem, 2000).

For experiment [1], the species on record is Rattus norvegicus. The experiment can be described thus: In vitro effect on production of calcium ionophore (A23187) -induced Leukotriene B4 (LTB4) in rat peritoneal cells. Type of experiment: functional, cell-based.
The test system of experiment [2] is Rattus norvegicus. The experiment can be described thus: Percent inhibition of adjuvant-induced arthritis at 10 mg/kg po. Type of experiment: functional.
Experiment [3] is filed under the species Rattus norvegicus.
Description: Lengths of bleeding ulcer of drug-administered group
Experiment [4] deals with Rattus norvegicus. The experiment can be described thus: Dose required for 30% inhibition of carrageenan-induced edema. It counts as functional. On the technique in general: Carrageenan injected into the paw causes an acute inflammation.
The species named for experiment [5] is Rattus norvegicus. The experiment can be described thus: Dose required for Ulcerogenic effect. It counts as functional.
In another experiment the test system is THP-1. Put plainly: In vitro effect on production of lipopolysaccharide (LPS) -induced IL1-beta in human THP-1 cells. Type of experiment: functional, cell-based.
The species named for experiment [6] is Rattus norvegicus. Put plainly: Dose required for 30% inhibition of adjuvant-induced arthritis. Type of experiment: functional.
The species named for experiment [7] is Homo sapiens. The experiment can be described thus: Inhibitory effect on production of (COX-1) thromboxane B2 (TXB2) in human platelet cells. It counts as functional, cell-based.
The species named for experiment [8] is Rattus norvegicus. Put plainly: (§1) Inhibitory effect for increase in plasma prostaglandin E2 (PGE2) level after arachidonic acid (AA) injection into COX-1 non-lipopolysaccharide-treated rats. Type of experiment: functional, organism-based.
The species named for experiment [9] is Rattus norvegicus. The experiment can be described thus: Inhibitory effect for increase in plasma prostaglandin E2 (PGE2) level after arachidonic acid (AA) injection into COX-2 lipopolysaccharide-treated rats. It counts as functional, organism-based.
The nature of experiment [10]: (§2) Inhibitory effect on production of cyclooxygenase-2 (COX-2) prostaglandin E2 (PGE2) in human IL1-beta stimulated synovial cells. It counts as functional.
A further experiment addresses T1, Cyclooxygenase (Rattus norvegicus, UniProt P35355+Q63921).
T1 sequence (P35355 whole entry): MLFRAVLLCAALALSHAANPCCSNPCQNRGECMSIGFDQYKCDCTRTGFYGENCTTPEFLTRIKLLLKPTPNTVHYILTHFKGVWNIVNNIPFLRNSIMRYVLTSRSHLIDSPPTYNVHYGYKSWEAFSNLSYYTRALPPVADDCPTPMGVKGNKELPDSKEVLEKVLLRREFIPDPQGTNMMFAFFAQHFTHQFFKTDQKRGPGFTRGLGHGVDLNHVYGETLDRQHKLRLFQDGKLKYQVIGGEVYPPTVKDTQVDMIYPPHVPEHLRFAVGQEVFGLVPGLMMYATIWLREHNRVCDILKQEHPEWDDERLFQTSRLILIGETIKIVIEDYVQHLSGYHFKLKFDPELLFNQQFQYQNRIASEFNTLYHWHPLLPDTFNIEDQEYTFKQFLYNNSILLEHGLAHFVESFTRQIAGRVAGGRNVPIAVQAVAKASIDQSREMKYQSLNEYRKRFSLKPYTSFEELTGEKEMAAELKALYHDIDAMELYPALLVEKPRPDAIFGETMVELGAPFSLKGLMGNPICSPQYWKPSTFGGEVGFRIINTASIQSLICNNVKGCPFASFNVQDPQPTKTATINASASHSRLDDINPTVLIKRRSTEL
T1 sequence (Q63921 whole entry): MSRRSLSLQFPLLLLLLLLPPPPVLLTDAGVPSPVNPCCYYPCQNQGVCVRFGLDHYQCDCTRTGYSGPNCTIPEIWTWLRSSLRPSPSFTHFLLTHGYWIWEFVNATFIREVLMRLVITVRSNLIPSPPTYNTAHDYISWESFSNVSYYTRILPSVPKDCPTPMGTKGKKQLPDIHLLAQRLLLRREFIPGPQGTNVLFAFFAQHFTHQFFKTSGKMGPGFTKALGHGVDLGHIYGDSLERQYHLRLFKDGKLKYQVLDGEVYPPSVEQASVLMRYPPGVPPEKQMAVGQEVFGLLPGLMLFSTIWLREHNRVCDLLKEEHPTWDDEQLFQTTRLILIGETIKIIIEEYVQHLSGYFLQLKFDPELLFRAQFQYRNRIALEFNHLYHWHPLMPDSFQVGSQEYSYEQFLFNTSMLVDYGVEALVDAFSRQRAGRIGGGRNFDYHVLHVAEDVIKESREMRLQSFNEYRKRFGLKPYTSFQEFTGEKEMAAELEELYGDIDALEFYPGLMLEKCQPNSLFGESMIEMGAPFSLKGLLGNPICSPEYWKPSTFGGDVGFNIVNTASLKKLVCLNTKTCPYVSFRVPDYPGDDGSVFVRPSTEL

Experiment [11] concerns Rattus norvegicus. Put plainly: Percent inhibition of carrageenan-induced foot-pad edema at 30 mg/kg po. It counts as functional.
For experiment [12], the system named is Rattus norvegicus. Put plainly: Percent inhibition of adjuvant-induced arthritis at 10 mg/kg poP<0.01. Type of experiment: functional. The note with it: read-out: Inhibition.
The species entered for experiment [13] is Homo sapiens. The experiment can be described thus: Inhibitory effect on production of cyclooxygenase-1 (COX-1) thromboxane B2 (TXB2) in human platelet cells.
Experiment [14] is described as follows: as §2.
Experiment [15] is filed under the species Rattus norvegicus. The description is as §1. It counts as functional.
For experiment [16], the species on record is Rattus norvegicus. Put plainly: Inhibitory effect for increase in plasma prostaglandin E2 (PGE2) level after arachidonic acid (AA) injection intoCOX-1 non-lipopolysaccharide-treated rats. It counts as functional.

Molecules are shown by their SMILES.

Description for Cyclooxygenase: In vitro inhibitory effect on production of prostaglandin E2 (PGE2) in rat synovial cells.

For the molecule `CCN1CC/C(=C\c2cc(C(C)(C)C)c(O)c(C(C)(C)C)c2)S1(=O)=O`, the IC50 was determined as 2.5 µM in the experiment listed under Rattus norvegicus [1]; 10 µM with THP-1; 27 µM in the experiment listed under Homo sapiens [7]; 0.011 µM in experiment [10]; 0.0095 µM on Cyclooxygenase. For the same molecule, the inhibition in vivo at 10 mg/kg in the experiment on Rattus norvegicus [2] turned out to be 37.8%. This molecule also came in with a Ulcer index in the experiment filed under Rattus norvegicus [3] of 1.6 mm. Moreover, the ED30 was found to be 3.5 mg/kg in the experiment with Rattus norvegicus [4] and 0.76 mg/kg in the experiment listed under Rattus norvegicus [6]. For the same molecule, the Dose in the experiment filed under Rattus norvegicus [5] stood at 400 mg/kg. Moreover, the ED50 is more than 30 mg/kg in the experiment listed under Rattus norvegicus [8] and 3.19 mg/kg in the experiment filed under Rattus norvegicus [9]. In the experiment on Rattus norvegicus [11], the inhibition in vivo at 30 mg/kg came out at 49.4%.
On to `CN1CC/C(=C\c2cc(C(C)(C)C)c(O)c(C(C)(C)C)c2)S1(=O)=O`, for which the IC50 in the experiment filed under Rattus norvegicus [1] was 2.8 µM; with THP-1, 28 µM; against Cyclooxygenase, 0.0091 µM. In addition, the inhibition in vivo at 10 mg/kg in the experiment on Rattus norvegicus [12] came to 39.4%. The Ulcer index in the experiment filed under Rattus norvegicus [3] was 26.8 mm. Besides, the values for the ED30 with Rattus norvegicus [4] and in the experiment filed under Rattus norvegicus [6] were 5.4 mg/kg and 0.64 mg/kg, respectively. For the same molecule, in the experiment listed under Rattus norvegicus [5], the Dose came to 400 mg/kg. Also, the inhibition in vivo at 30 mg/kg with Rattus norvegicus [11] turned out to be 61.4%.
Take `Cc1ccc(-c2cc(C(F)(F)F)nn2-c2ccc(S(N)(=O)=O)cc2)cc1` [CELECOXIB]: the IC50 in the experiment listed under Homo sapiens [13] was determined as 19 µM; in experiment [14] it was 0.0079 µM.
For the molecule `COc1ccc2c(c1)c(CC(=O)O)c(C)n2C(=O)c1ccc(Cl)cc1` [INDOMETHACIN], the ED50 in the experiment listed under Rattus norvegicus [15] and in the experiment filed under Rattus norvegicus [16] was 0.37 mg/kg each time. The IC50 in the experiment listed under Rattus norvegicus [1] and in the experiment with THP-1 was more than 100 µM in each case. Moreover, the results for the ED30 in the experiment with Rattus norvegicus [4] and in the experiment listed under Rattus norvegicus [6] were 0.8 mg/kg and 0.06 mg/kg, respectively. Also, the Dose in the experiment listed under Rattus norvegicus [5] is 30 mg/kg.
